Tests used:
Jurkat cells [1] = test: Wash-off growth study in Jurkat cells; assay type: cell-based, human; conditions: pre-treated 200 nM for 8 days, then drug-free vs drug-containing media for 8 days
Procedure: We also compared the stability of short-term growth inhibition induced by a PROTAC and a kinase inhibitor in a wash-off study in Jurkat cells. In the experiment shown in FIG. 11C, Jurkat cells were pre-treated with 200 nM BI-1347 or IA7886 for 8 days before removal of drug-containing media and further cultured in either drug-containing (200 nM) or drug-free media for 8 days before counting cell numbers. Removal of BI-1347 led to 7.1 fold increase of the cell number while removal of IA7886 increased the cell number only 1.8 fold (FIG. 11C).

CDK8 [2] = target: T1, CDK8 (Homo sapiens, UniProt P49336); test: CDK8 degradation in Loucy T-cell leukemia cells lacking Cyclin C; assay type: cell-based; design: endogenous in cells; host or cells: Loucy; conditions: Loucy cells (lacking CCNC), 24 hr treatment
Text: (§1) This cell line, however, is unique in lacking Cyclin C (CCNC), the binding partner of CDK8/19. To test if the absence of CDK8-bound CCNC was responsible for the loss of IA7843 CDK8-degrading activity, we have tested the effect of IA7843 on a derivative of HEK-293cells with CRISPR-mediated knockout of CCNC.
Target sequence in this assay (P49336 whole entry): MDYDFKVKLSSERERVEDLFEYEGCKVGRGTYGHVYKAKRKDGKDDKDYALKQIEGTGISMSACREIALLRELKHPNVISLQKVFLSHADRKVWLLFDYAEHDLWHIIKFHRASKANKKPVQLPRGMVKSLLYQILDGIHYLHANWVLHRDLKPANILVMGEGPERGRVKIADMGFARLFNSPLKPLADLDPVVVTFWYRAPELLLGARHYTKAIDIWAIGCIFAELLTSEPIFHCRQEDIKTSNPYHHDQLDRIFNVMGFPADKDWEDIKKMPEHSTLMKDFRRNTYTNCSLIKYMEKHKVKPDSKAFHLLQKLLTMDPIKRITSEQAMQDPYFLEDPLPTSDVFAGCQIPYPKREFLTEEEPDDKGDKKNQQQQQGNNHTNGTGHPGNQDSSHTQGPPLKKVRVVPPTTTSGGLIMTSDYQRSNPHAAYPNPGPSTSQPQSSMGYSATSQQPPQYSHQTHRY

CDK8 [3] = target: T1, CDK8; test: CDK8 degradation in HEK-293 cells with CRISPR knockout of CCNC; assay type: cell-based; design: a derivative of HEK-293cells with CRISPR-mediated knockout of CCNC; endogenous in cells; host or cells: HEK-293 with CRISPR knockout of CCNC; conditions: HEK-293 CCNC-knockout cells, 24 hr treatment
Text: as §1
Target sequence in this assay (P49336 whole entry): as above

[4] = system: CDK8/CDK19/CCNC protein degradation and STAT1 S727 phosphorylation; test: Wash-off study in HEK-293 cells, Western blot; assay type: cell-based, human; conditions: HEK-293, within 24 hours after removal of drug-containing media
CDK8 [5] = target: T1, CDK8; test: CDK8 degradation in other human cell lines (22Rv1, MV4-11, HAP-1, HTB-185, SAOS2, SJSA-1); assay type: cell-based; design: endogenous in cells; conditions: 24-hr treatment
Text: FIG. 5 illustrates the effects of the novel PROTACs HP8580, IA7843 and IA7886 on CDK8 and CDK19 degradation in other human cell lines, including 22Rv1 prostate cancer (expressing more CDK19 than CDK8), MV4-11 (AML) and HAP-1 (CML) leukemia cell lines, HTB-185 medulloblastoma, and SAOS2 and SJSA-1 osteosarcoma (the latter expressing only CDK19 but not CDK8).
Target sequence in this assay (P49336 whole entry): as above
Target sequence in this assay (P24863 whole entry partner): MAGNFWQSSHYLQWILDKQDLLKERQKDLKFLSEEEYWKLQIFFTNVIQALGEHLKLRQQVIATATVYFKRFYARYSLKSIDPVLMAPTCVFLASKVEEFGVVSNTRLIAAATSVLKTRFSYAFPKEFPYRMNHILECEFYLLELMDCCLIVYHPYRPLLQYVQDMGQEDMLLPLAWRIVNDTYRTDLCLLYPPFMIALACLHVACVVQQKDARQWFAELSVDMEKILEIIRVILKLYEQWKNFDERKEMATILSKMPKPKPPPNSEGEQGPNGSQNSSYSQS

CDK8 [6] = target: T2, CDK8 (Canis lupus familiaris, UniProt A0A8I3PYQ8); test: CDK8 degradation in canine Abrams osteosarcoma cells; assay type: cell-based
T2 construct: endogenous in cells; host or cells: Abrams (canine osteosarcoma)
T2 sequence (A0A8I3PYQ8 1-464): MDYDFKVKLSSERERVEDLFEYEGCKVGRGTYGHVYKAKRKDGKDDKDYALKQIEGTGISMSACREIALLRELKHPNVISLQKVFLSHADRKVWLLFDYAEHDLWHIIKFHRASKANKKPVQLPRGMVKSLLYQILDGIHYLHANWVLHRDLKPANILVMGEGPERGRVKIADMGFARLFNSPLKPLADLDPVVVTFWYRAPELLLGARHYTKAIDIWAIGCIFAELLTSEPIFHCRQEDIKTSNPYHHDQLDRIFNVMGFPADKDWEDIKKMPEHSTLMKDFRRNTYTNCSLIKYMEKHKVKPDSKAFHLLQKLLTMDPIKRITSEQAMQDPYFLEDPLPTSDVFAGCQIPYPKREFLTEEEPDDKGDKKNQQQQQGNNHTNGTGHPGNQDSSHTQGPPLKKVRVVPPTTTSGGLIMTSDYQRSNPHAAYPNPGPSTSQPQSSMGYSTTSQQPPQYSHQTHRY
Text: (§2) Both the extent and the kinetics of CDK8 degradation were similar between two cell lines, with the degradation reaching maximum at about 8 hrs of PROTAC treatment.

Jurkat cells [7] = test: Long-term growth of Jurkat cells under continuous treatment; assay type: cell-based, human; conditions: 300 nM continuous
Procedure: The anti-proliferative effects of a PROTAC and a kinase inhibitor were compared in leukemia cell lines. In the long-term treatment experiment shown in FIG. 11A, Jurkat cells (0.1 million cells) were continuously treated with vehicle control (0.1% DMSO), 300 nM BI-1347 or 300 nM IA7886 for 53 days (each condition in biological triplicates). Every 7-8 days, live cells were counted using BioRAD TC20 Automated Cell Counter with trypan blue staining: 0.1 million live cells were passaged to a new T25 flask to propagate under the same treatment conditions. The survival fraction was calculated by dividing the accumulated number of drug-treated cells with the accumulated number of vehicle-treated cells. […] This sustained inhibition property of PROTAC was also observed in MV4-11, a leukemia cell line highly sensitive to CDK8/19 kinase inhibitors.

CDK19 = target: T3, CDK19 (Canis lupus familiaris, UniProt A0A8I3NZB9); test: CDK19 degradation in canine Abrams osteosarcoma cells; assay type: cell-based
T3 construct: endogenous in cells; host or cells: Abrams (canine osteosarcoma)
T3 sequence (A0A8I3NZB9 1-502): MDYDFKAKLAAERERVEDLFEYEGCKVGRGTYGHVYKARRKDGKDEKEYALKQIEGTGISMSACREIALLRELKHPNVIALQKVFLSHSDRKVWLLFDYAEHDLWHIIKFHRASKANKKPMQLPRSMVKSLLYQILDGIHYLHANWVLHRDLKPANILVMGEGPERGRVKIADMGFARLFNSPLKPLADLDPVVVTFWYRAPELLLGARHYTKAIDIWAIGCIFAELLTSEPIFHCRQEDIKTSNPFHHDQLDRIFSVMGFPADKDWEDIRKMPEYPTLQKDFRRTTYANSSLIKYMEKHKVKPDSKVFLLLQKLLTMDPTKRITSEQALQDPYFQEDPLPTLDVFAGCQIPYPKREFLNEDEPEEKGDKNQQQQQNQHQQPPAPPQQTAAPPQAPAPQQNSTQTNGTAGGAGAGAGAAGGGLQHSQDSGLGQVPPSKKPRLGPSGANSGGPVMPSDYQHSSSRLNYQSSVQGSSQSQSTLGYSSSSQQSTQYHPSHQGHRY
Text: as §2

RPMI 8226 cells = test: Concentration dependence of RPMI 8226 growth inhibition; assay type: cell-based; conditions: Homo sapiens, 96 h; RPMI 8226, 4-day growth inhibition
KMS-12-BM cells = test: Concentration dependence of KMS-12-BM growth inhibition (CCK-8 assay); assay type: cell-based; conditions: Homo sapiens, 96 h, over 4 days
Procedure: Concentration dependence of KMS-12-BM growth inhibition over 4 days was determined for BI-1347 CDK8/19 kinase inhibitor and IA7886 PROTAC using CCK-8 assay (FIG. 13B).

- CDK8 degradation (in words) (CDK8 [2]): efficiently degraded CDK8 and CDK19
- CDK8 degradation (in words) (CDK8 [3]): efficiently degraded CDK8 and CDK19
Structure (SMILES): O=C(CCCNc1cccc2c1C(=O)N(C1CCC(=O)NC1=O)C2=O)NCCCCCCCCCCC(=O)N1CCN(C(=O)Cn2cc(-c3ccc(-c4cncc5ccccc45)cc3)cn2)CC1 (centres unmarked) [IA7886, 4-[[2-(2,6-dioxo-3-piperidyl)-1,3-dioxo-isoindolin-4-yl]amino]-N-[11-[4-[2-[4-[4-(4-isoquinolyl)phenyl]pyrazol-1-yl]acetyl]piperazin-1-yl]-11-oxo-undecyl]butanamide]
- increase of the cell number upon removal of drug (Jurkat cells [1]): 1.8 fold
- effects on CDK8/CDK19/CCNC protein degradation and STAT1 S727 phosphorylation after removal of drug [4]: remained nearly unchanged
- CDK8 degradation (in words) (CDK8 [5]): significantly degraded CDK8 and CDK19 in all the tested cell lines
- CDK8 degradation (in words) (CDK8 [6]): induce CDK8 degradation in both cell lines
- growth inhibition, first two passages (14 days) (Jurkat cells [7]): had a stronger growth inhibition effect than the PROTAC IA7886
- growth rates in later passages (Jurkat cells [7]; up to 53 days): growth rates of IA-7886 treated cells were decreasing
- CDK19 degradation (in words) (CDK19): induced CDK19 degradation in Abrams cells
- IC50 (RPMI 8226 cells): 24 nM
- IC50 (KMS-12-BM cells): 18 nM
